This is an account of results in patent EP4678644A1, “SUBSTITUTED DIHYDROTHIENOPYRIMIDINE COMPOUND, PREPARATION METHOD THEREFOR, AND USE THEREOF” (Shanghai Yidi Biotechnology Co., Ltd., priority 2023, dated 2024).

The target of experiment [1] is T1, PDE4B2 (Homo sapiens, UniProt Q07343).
T1 construct: expressed in transfected cells; host or cells: Flp-In-293 (Flpin-293-PDE4B2 [sic])
Kind of experiment: PDE4B2 enzyme experiment (AMP-glo, cAMP substrate). The class given is biochemical.
Experimental: All compounds were dissolved in DMSO into 10 mM or 20 mM stock solutions. The compound to be tested was diluted with DMSO in a 3-fold gradient. 20 nL/well of the compound or a DMSO control was transferred to a 384-well plate by using Echo 550 instrument. The plate was sealed with a membrane and centrifuged for 1 minute. A 2x enzyme solution was prepared with an assay buffer, and 2 uL/well of the 2x enzyme solution was added, followed by equilibration at room temperature for 10 minutes. A 2x Cyclic-3',5'-AMP substrate solution was prepared with an assay buffer, and 2 uL/well of the 2x substrate solution was added, followed by incubation at room temperature for 60 minutes. 4 uL of AMP-glo reagent was added, followed by incubation at room temperature for 60 minutes. 8 ul of an AMP detection solution was added, followed by incubation at room temperature for 60 minutes. An RLU value was read on Envision 2105 plate reader. The RLU value represents the concentration of the product AMP. Inhibition rate % ^= (1 - (RLUpositive control - RLUcompound)/(RLUpositive control - RLUnegative control)) * 100. The IC50 value was then caulculated by Graphpad 8.0 software using Y = Bottom + (Top - Bottom)/(1 + 10^((LogIC50 - X) * HillSlope)).

The target of another experiment is PDE4D2 (Homo sapiens, UniProt Q08499). In words: PDE4D2 enzyme experiment (AMP-glo, cAMP substrate). The class given is biochemical. The following applies: read-out: PDE4D2 IC50 Binding. From the text: Inhibition rate % ^= (1 - (RLUpositive control - RLUcompound)/(RLUpositive control - RLUnegative control)) * 100.
Chain of PDE4D2 (Q08499 303-809 limits assumed): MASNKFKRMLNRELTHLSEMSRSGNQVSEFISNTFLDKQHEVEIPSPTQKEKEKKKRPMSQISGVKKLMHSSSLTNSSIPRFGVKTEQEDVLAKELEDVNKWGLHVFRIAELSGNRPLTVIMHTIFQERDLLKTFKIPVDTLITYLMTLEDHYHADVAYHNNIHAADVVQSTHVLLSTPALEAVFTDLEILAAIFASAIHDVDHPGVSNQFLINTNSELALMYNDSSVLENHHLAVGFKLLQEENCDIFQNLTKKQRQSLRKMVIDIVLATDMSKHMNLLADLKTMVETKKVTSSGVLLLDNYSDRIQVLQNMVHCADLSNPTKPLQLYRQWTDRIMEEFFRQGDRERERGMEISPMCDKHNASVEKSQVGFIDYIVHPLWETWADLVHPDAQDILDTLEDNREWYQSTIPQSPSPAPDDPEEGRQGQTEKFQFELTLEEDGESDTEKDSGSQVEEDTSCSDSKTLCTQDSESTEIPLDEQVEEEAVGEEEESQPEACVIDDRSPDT
Experiment [2] has as its target T1, PDE4B2. Kind of experiment: PDE4B2 cell experiment (cAMP, Eu-cAMP tracer / Ulight-anti-cAMP). The class given is cell-based. The following applies: Flpin-293-PDE4B2 cells; for IC50: Foskolin.
Experimental: All compounds were dissolved in DMSO into 10 mM or 20 mM stock solutions. The compound to be tested was diluted with DMSO with a 3-fold gradient. […] 40 nL/well of the compound or a DMSO control was transferred to a 384-well plate by using Echo 550 instrument. […] The plate was incubated at 37°C for 30 minutes. Eu-cAMP tracer and Ulight-anti-cAMP were frozen and thawed and diluted in a lysis buffer. 10 of µl Eu-cAMP tracer was added to an experimental well, and 10 µl of Ulight-anti-cAMP was added to the experimental well. The reaction plate was centrifuged at 200 g at room temperature for 30 s and then left to stand at 25°C for 1 h, and data was then collected by Envision. Inhibition % = 100 - (Signal compound - SignalAve positive control)/(SignalAve negative control - SignalAve positive control) × 100. Graphpad 8.0 software was then used to obtain an IC50 value by calculation using Y = Bottom + (Top - Bottom)/(1 + 10^((LogIC50 - X) * HillSlope)).

T1 sequence (Q07343 1-564 isoform Q07343-2): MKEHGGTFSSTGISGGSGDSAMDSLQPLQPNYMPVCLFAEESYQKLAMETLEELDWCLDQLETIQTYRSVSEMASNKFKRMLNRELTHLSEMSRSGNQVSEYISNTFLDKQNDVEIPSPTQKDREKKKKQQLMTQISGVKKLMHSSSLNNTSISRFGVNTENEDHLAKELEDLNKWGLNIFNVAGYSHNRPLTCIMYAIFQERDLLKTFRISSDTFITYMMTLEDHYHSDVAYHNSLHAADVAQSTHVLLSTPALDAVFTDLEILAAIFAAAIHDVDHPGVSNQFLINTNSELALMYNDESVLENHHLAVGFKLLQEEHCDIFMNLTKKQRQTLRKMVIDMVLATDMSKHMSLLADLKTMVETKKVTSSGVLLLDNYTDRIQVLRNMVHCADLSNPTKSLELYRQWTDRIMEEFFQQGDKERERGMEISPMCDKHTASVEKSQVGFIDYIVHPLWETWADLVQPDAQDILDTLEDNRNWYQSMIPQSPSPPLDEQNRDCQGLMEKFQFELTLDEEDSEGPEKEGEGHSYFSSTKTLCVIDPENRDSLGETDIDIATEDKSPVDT

As for `[O-][S+]1CCc2nc(N3Cc4nn5cc(Cl)cnc5c4C3)nc(NC3(CO)CCC3)c21` (stereo not drawn) [Compound 2], the half-maximal inhibitory concentration (IC50) turned out to be 19.3 nM on PDE4B2 [1], 60.1 nM at PDE4D2 and 418 nM against PDE4B2 [2].
Consider `[O-][S@+]1CCc2nc(N3CCc4nn5cc(Cl)cnc5c4C3)nc(NC3(CO)CCC3)c21` [Compound 4], for which the IC50 is 2.71 nM at PDE4B2 [1], 7.25 nM at PDE4D2 and 29.6 nM at PDE4B2 [2].
Take `[O-][S@+]1CCc2nc(N3CCn4c(nc5ccc(Cl)cc54)C3)nc(NC3(CO)CCC3)c21` [Compound 6, (R)-2-(7-chloro-3,4-dihydrobenzo[4,5]imidazo[1,2-a]pyrazin-2(1H)-yl)-4-((1-(hydroxymethyl)cyclobutyl)amino)-6,7-dihydrothieno[3,2-d]pyrimidine 5-oxide]: the half-maximal inhibitory concentration (IC50) against PDE4B2 [1] worked out at 0.41 nM; on PDE4D2, 0.473 nM; against PDE4B2 [2], 8.2 nM.
Turning to `[O-][S@+]1CCc2nc(N3CC[C@@H]4c5ccc(Cl)cc5OC[C@H]4C3)nc(NC3(CO)CCC3)c21` [Compound 14, (R)-2-((4aR,10bS)-8-chloro-1,4a,5,10b-tetrahydro-2H-chromeno[3,4-c]pyridin-3(4H)-yl)-4-((1-(hydroxymethyl)cyclobutyl)amino)-6,7-dihydrothieno[3,2-d]pyrimidine 5-oxide], the IC50 was 0.21 nM against PDE4B2 [1], 1.08 nM at PDE4D2 and 16.5 nM at PDE4B2 [2].
The corresponding values for `[O-][S+]1CCc2nc(N3CCc4ncsc4C3)nc(NC3(CO)CCC3)c21` (stereo not drawn) [Compound 15] are 20.4 nM, 28.6 nM and 150 nM.
Turning to `Cc1nc2c(s1)CN(c1nc3c(c(NC4(CO)CCC4)n1)[S+]([O-])CC3)CC2` (stereo not drawn) [Compound 16], the results for the IC50 on PDE4B2 [1], at PDE4D2 and on PDE4B2 [2] were 10.7 nM, 17.3 nM and 78 nM, respectively.
The corresponding values for `COc1ccc2c(c1)CCN(c1nc3c(c(NC4(CO)CCC4)n1)[S+]([O-])CC3)C2` (stereo not drawn) [Compound 22] are 0.97 nM, 1.46 nM and 14.8 nM.
Turning to `[O-][S+]1CCc2nc(N3CCc4cc(Br)ccc4C3)nc(NC3(CO)CCC3)c21` (stereo not drawn) [Compound 24], the values for the IC50 on PDE4B2 [1], on PDE4D2 and on PDE4B2 [2] were 0.38 nM, 0.92 nM and 10.4 nM, respectively.
For `[O-][S+]1CCc2nc(N3CCc4cc(Cl)cc(Cl)c4C3)nc(NC3(CO)CCC3)c21` (stereo not drawn) [Compound 25], the figures for the half-maximal inhibitory concentration (IC50) at PDE4B2 [1], on PDE4D2 and at PDE4B2 [2] were 0.92 nM, 2.19 nM and 23.7 nM, respectively.
On to `[O-][S+]1CCc2nc(N3CCc4cc(Cl)c(Cl)cc4C3)nc(NC3(CO)CCC3)c21` (stereo not drawn) [Compound 26], for which the figures for the IC50 against PDE4B2 [1], on PDE4D2 and against PDE4B2 [2] were 0.77 nM, 2.51 nM and 19.7 nM, respectively.
Take `O=[N+]([O-])c1ccc2c(c1)CCN(c1nc3c(c(NC4(CO)CCC4)n1)[S+]([O-])CC3)C2` (stereo not drawn) [Compound 27]: the IC50 was 0.55 nM on PDE4B2 [1], 0.88 nM at PDE4D2 and 8.11 nM on PDE4B2 [2].
With `C[C@@H]1c2ccc(Cl)cc2CCN1c1nc2c(c(NC3(CO)CCC3)n1)[S@+]([O-])CC2` [Compound 29], the IC50 against PDE4B2 [1] worked out at 0.54 nM; on PDE4D2, 1.79 nM.
On to `[O-][S+]1CCc2nc(N3CCc4c(nn5cc(F)ccc45)C3)nc(NC3(CO)CCC3)c21` (stereo not drawn) [Compound 32], for which the IC50 against PDE4B2 [1] was found to be 0.201 nM; on PDE4D2 it was 0.405 nM. Also, the “Cell Inhibition% @1 nM” value at PDE4B2 [2] (1 nM) stood at 23.54%. In addition, the “Cell Inhibition% @10 nM” value on PDE4B2 [2] (10 nM) stood at 74.22%. Further, the “Cell Inhibition% @100 nM” value on PDE4B2 [2] (100 nM) was found to be 97.65%.
`[O-][S+]1CCc2nc(N3CCc4cc5c(cc4C3)OCO5)nc(NC3(CO)CCC3)c21` (stereo not drawn) [Compound 35]: the IC50 came out at 1.32 nM against PDE4B2 [1], 3.89 nM on PDE4D2 and 46.1 nM against PDE4B2 [2].
Take `O=c1[nH]c2cc3c(cc2o1)CN(c1nc2c(c(NC4(CO)CCC4)n1)[S@+]([O-])CC2)CC3` [Compound 51, (R)-6-(4-((1-(hydroxymethyl)cyclobutyl)amino)-5-oxido-6,7-dihydrothieno[3,2-d]pyrimidin-2-yl)-5,6,7,8-tetrahydrooxazolo[4,5-g]isoquinolin-2(1H)-one]: the IC50 against PDE4B2 [1] worked out at 0.596 nM; at PDE4D2 it was 1.18 nM. Further, 0.001 µM produced 17.1% inhibition at PDE4B2 [2] (1 nM). The inhibition at 0.01 µM against PDE4B2 [2] (10 nM) stood at 38.4%. Moreover, the inhibition at 0.1 µM against PDE4B2 [2] (100 nM) came to 70.1%.
With `[O-][S+]1CCc2nc(N3CCc4cc(C(F)(F)F)ccc4C3)nc(NC3(CO)CCC3)c21` (stereo not drawn) [Compound 52], the IC50 came to 0.488 nM at PDE4B2 [1] and 0.826 nM at PDE4D2. Besides, at PDE4B2 [2] (10 nM), the “Cell Inhibition% @10 nM” value is on record as 81.81%. Moreover, at PDE4B2 [2] (100 nM), the “Cell Inhibition% @100 nM” value is 99.55%.
With `[O-][S@+]1CCc2nc(N3CCc4nc(N5CCC5)sc4C3)nc(NC3(CO)CCC3)c21` [Compound 64, (R)-2-(2-(azetidin-1-yl)-6,7-dihydrothiazolo[5,4-c]pyridin-5(4H)-yl)-4-((1-(hydroxymethyl)cyclobutyl)amino)-6,7dihydrothieno[3,2-d]pyrimidine 5-oxide], on PDE4D2, the IC50 was determined as 3.46 nM.
Consider `[O-][S@+]1CCc2nc(N3CCc4cc(-c5nccs5)ccc4C3)nc(NC3(CO)CCC3)c21` [Compound 65, (R)-4-((1-(hydroxymethyl)cyclobutyl)amino)-2-(6-(thiazol-2-yl)-3,4-dihydroisoquinolin-2(1H)-yl)-6,7-dihydrothieno[3,2-d]pyrimidine 5-oxide], for which, at PDE4D2, the IC50 stood at 0.0931 nM.
On the same count and under the same terms, the result for `[O-][S@+]1CCc2nc(N3CCc4cc(C5CC5)ccc4C3)nc(NC3(CO)CCC3)c21` [Compound 66, (R)-2-(6-cyclopropyl-3,4-dihydroisoquinolin-2(1H)-yl)-4-((1-(hydroxymethyl)cyclobutyl)amino)-6,7-dihydrothieno[3,2-d]pyrimidine 5-oxide] reads 1.13 nM; that for `[O-][S@+]1CCc2nc(N3CCc4c(sc5ccc(F)cc45)C3)nc(NC3(CO)CCC3)c21` [Compound 69, (R)-2-(6-fluoro-3,4-dihydrobenzo[4,5]thieno[2,3-c]pyridin-2(1H)-yl)-4-((1-(hydroxymethyl)cyclobutyl)amino)-6,7-dihydrothieno[3,2-d]pyrimidine 5-oxide], 0.276 nM; that for `[O-][S@+]1CCc2nc(N3CCc4c(cnc5cc(Cl)ccc45)C3)nc(NC3(CO)CCC3)c21` [Compound 72, (R)-2-(8-chloro-1,4-dihydrobenzo[c][2,7]naphthyridin-3(2H)-yl)-4-((1-(hydroxymethyl)cyclobutyl)amino)-6,7-dihydrothieno[3,2-d]pyrimidine 5-oxide], 0.587 nM.
On to `[O-][S@+]1CCc2nc(N3CCc4c(c(Cl)nc5cc(Cl)ccc45)C3)nc(NC3(CO)CCC3)c21` [Compound 73, (R)-2-(5,8-dichloro-1,4-dihydrobenzo[c][2,7]naphthyridin-3(2H)-yl)-4-((1-(hydroxymethyl)cyclobutyl)amino)-6,7-dihydrothieno[3,2-d]pyrimidine 5-oxide], for which, at PDE4D2, the IC50 was 0.958 nM.
For the compound `CNc1nc2cc(Cl)ccc2c2c1CN(c1nc3c(c(NC4(CO)CCC4)n1)[S@+]([O-])CC3)CC2` [Compound 74, (R)-2-(8-chloro-5-(methylamino)-1,4-dihydrobenzo[c][2,7]naphthyridin-3(2H)-yl)-4-((1-(hydroxymethyl)cyclobutyl)amino)-6,7-dihydrothieno[3,2-d]pyrimidine 5-oxide], the half-maximal inhibitory concentration (IC50) at PDE4D2 was determined as 1.09 nM.
Same read-out and setting: the result for `Cn1nccc1-c1ccc2c(c1)CCN(c1nc3c(c(NC4(CO)CCC4)n1)[S@+]([O-])CC3)C2` [Compound 76, (R)-4-((1-(hydroxymethyl)cyclobutyl)amino)-2-(6-(1-methyl-1H-pyrazol-5-yl)-3,4-dihydroisoquinolin-2(1H)-yl)-6,7-dihydrothieno[3,2-d]pyrimidine 5-oxide] reads 0.089 nM; that for `O=C1OCCN1c1ccc2c(c1)CCN(c1nc3c(c(NC4(CO)CCC4)n1)[S@+]([O-])CC3)C2` [Compound 80, (R)-3-(2-(4-((1-(hydroxymethyl)cyclobutyl)amino)-5-oxido-6,7-dihydrothieno[3,2-d]pyrimidin-2-yl)-1,2,3,4-tetrahydroisoquinolin-6-yl)oxazolidin-2-one], 0.56 nM; that for `Cn1ncc2c3c(cnc21)CN(c1nc2c(c(NC4(CO)CCC4)n1)[S@+]([O-])CC2)CC3` [Compound 104, (R)-4-((1-(hydroxymethyl)cyclobutyl)amino)-2-(3-methyl-3,6,8,9-tetrahydro-7H-pyrazolo[3,4-c][2,7]naphthyridin-7-yl)-6,7-dihydrothieno[3,2-d]pyrimidine 5-oxide], 2.94 nM.
The same measure, in the same setting: the same measure for `[O-][S@+]1CCc2nc(N3CCc4nc(N5CCCC5)ccc4C3)nc(NC3(CO)CCC3)c21` [Compound 135, (R)-4-((1-(hydroxymethyl)cyclobutyl)amino)-2-(2-(pyrrolidin-1-yl)-7,8-dihydro-1,6-naphthyridin-6(5H)-yl)-6,7-dihydrothieno[3,2-d]pyrimidine 5-oxide]: 3.38 nM.
The same measure, in the same setting: the same measure for `[O-][S@+]1CCc2nc(N3CCc4c(ccc(N5CCCC5)c4F)C3)nc(NC3(CO)CCC3)c21` [Compound 180, (R)-2-(5-fluoro-6-(pyrrolidin-1-yl)-3,4-dihydroisoquinolin-2(1H)-yl)-4-((1-(hydroxymethyl)cyclobutyl)amino)-6,7-dihydrothieno[3,2-d]pyrimidine 5-oxide]: 6.38 nM.
Turning to `[O-][S@+]1CCc2nc(N3CCc4cc(N5CCCC5)c(F)cc4C3)nc(NC3(CO)CCC3)c21` [Compound 181, (R)-2-(7-fluoro-6-(pyrrolidin-1-yl)-3,4-dihydroisoquinolin-2(1H)-yl)-4-((1-(hydroxymethyl)cyclobutyl)amino)-6,7-dihydrothieno[3,2-d]pyrimidine 5-oxide], on PDE4D2, the IC50 amounted to 0.876 nM.
Take `[O-][S@+]1CCc2nc(N3CCc4nc(N5CCCC5)cnc4C3)nc(NC3(CO)CCC3)c21` [Compound 218, (R)-4-((1-(hydroxymethyl)cyclobutyl)amino)-2-(2-(pyrrolidin-1-yl)-7,8-dihydropyrido[3,4-b]pyrazin-6(5H)-yl)-6,7-dihydrothieno[3,2-d]pyrimidine 5-oxide]: the IC50 at PDE4D2 is 1.88 nM.

One may read the IC50 as the concentration at which inhibition is half-maximal. A word on the inhibition: it is the change of the read-out against control, counted positive when it falls. Read a high inhibition as a strong effect.
